From patent US20040138241A1, “Novel use of arylethenesulfonamide derivative” (priority 2001, published 2004)
Counter-ions that a name gives are not always drawn. Like-named read-outs stand apart in the source and are kept apart here.

Experiments:
[1] = tested on: prostatic urethral pressure in anesthetized dogs; type: in vivo, dog; details: for EC50 value of increase of PUP, reduced into molar concentration: i.a. local administration, mean±standard error
Experimental: After waiting for stabilization of hemodynamics following the operation, the balloon was fixed to the prostatic urethra and expanded, and a prostatic urethral pressure (PUP) was measured from a change in pressure within the balloon.
ET-1 (from 0.006 to 0.8 μg/kg i.a., molar concentration: from 0.0025 to 0.321 nmol/kg i.a.) and phenylephrine hydrochloride (from 0.06 to 8 μg/kg i.a.; molar concentration: from 0.307 to 39.3 nmol/kg i.a.) were locally administered, thereby comparing the dose-response curve of an increasing action of PUP by the drugs.
In the experiments, dogs in which a degree of increase of PUP was observed 40 cmH2O or more in the pre-contraction with phenylephrine hydrochloride (8 μg/kg i.a.) were used.

[2] = tested on: urethral pressure in anesthetized dogs; test: ET-1 induced increase of urethral pressure in the presence of α1 receptor blocker in anesthetized dog; type: in vivo; details: tamsulosin hydrochloride 10 μg/kg i.v.
Experimental: A urethral pressure profile (UPP) was recorded according to the same operation method as in Test Example 3 .
Thirty minutes thereafter, the same amount of tamsulosin hydrochloride (10 μg/kg i.v.) was again intravenously administered.

[3] = tested on: urethral pressure in anesthetized dogs
From the text: Male beagle dogs (body weight: from 8 to 13 kg) were subjected to artificial ventilation under the anesthesia with pentobarbital, a catheter was inserted into a left femoral artery for measurement of blood pressure and heart rate and a left femoral vein for administration of drug. A catheter for measurement of urethral pressure (from 8 to 10Fr, 2 holes, manufactured by Create Medic Co., Ltd.) was inserted from an external urethral meatus toward urinary bladder. An automatic syringe pump was connected with one end of the catheter, and a pressure transducer was connected with the other end thereof. […] At the same time, by drawing out the catheter from the urinary bladder into the external urethral meatus at a rate of 25 mm/min by an automatic drawing unit, the pressure was measured and recorded throughout urethra as a urethral pressure profile (UPP) as shown in FIG. 6.
In the blood pressure-response by ET-1 since the pressure increased after a transient reduction of pressure, measurement of the urethral pressure was started about 3 minutes after the administration. On the other hand, as phenylephrine hydrochloride caused an increase of pressure immediately after the administration, measurement of the urethral pressure was started immediately after the administration.
Three minutes after the administration, ET-1 (1 μg/kg) was again intravenously administered, and an action against the urethral pressure was studied similarly to the time of single administration.

[4] = tested on: isolated rabbit prostate, urethra and bladder base preparations; test: Concentration-response of agonists in isolated rabbit lower urinary tract preparations; type: biochemical; details: cumulative addition
Experimental: Male Japanese white rabbits (from 3 to 5 kg, available from Kitayama Labes Co., Ltd.) were provided for experiments. Prostate, urethra and bladder were isolated from the rabbit to prepare ring preparations of smooth muscle. With respect to the bladder, a dorsal region of the bladder base was used as preparation. Each of the preparations was suspended in an organ bath filled with a Krebs-Henselit solution at 37 ° C., into which was then aerated a 95% O2-5% CO2 gas. A resting tension was subjected as 1g, and a tension change was isometrically measured. Incidentally, the organ bath for preventing adsorption of ET-1 was previously subjected to silicon treatment. After elapse of an equilibrium period for 60 minutes, the preparation was contracted twice by 10 μM phenylephrine hydrochloride to be stabilized the responsibility, and a main experiment was started.
ET-1 (from 0.1 to 1,000 nM), phenylephrine hydrochloride (from 0.01 to 100 μM), S6c (from 1 to 1,000 nM), or acetylcholine (from 0.01 to 1,000 μM) was cumulatively added to the organ bath to obtain a concentration-response curve. […] The contraction response to each agonists was expressed while defining the contraction by phenylephrine hydrochloride (10 μM) as obtained immediately therebefore as 100%.

[5] = ET-1 1 μg/kg i.v., phenylephrine hydrochloride 30 μg/kg i.v.

In the case of `CC[C@H](C)[C@H](NC(=O)[C@H](CC(=O)O)NC(=O)[C@H](CC(C)C)NC(=O)[C@H](Cc1cnc[nH]1)NC(=O)[C@@H]1CSSC[C@H](N)C(=O)N[C@@H](CO)C(=O)N[C@H]2CSSC[C@H](NC(=O)[C@H](CCC(=O)O)NC(=O)[C@H](CCCCN)NC(=O)[C@H](CC(=O)O)NC(=O)[C@H](CCSC)NC(=O)[C@H](CC(C)C)NC(=O)[C@H](CO)NC(=O)[C@H](CO)NC2=O)C(=O)N[C@@H](C(C)C)C(=O)N[C@@H](Cc2ccc(O)cc2)C(=O)N[C@@H](Cc2ccccc2)C(=O)N1)C(=O)N[C@H](C(=O)N[C@@H](Cc1c[nH]c2ccccc12)C(=O)O)[C@@H](C)CC` [ET-1], the “duration of increase response of PUP relative to phenylephrine hydrochloride” value ([1]; ET-1 0.4 μg/kg i.a. vs phenylephrine hydrochloride 2 μg/kg i.a., typical example) was “about 3 times”, the “concentration for increasing action of prostatic urethral pressure, times lower than phenylephrine hydrochloride” value ([1]; anesthetized dog, i.a.) was “about 100 times” and the “maximum response of PUP, of that of phenylephrine hydrochloride” value ([1]; anesthetized dog, i.a.) was 43.9 ±5.2%. For the same compound, the “EC50 value of increase of PUP, reduced into molar concentration” value ([1]; anesthetized dog) was 0.08 ± 0.03 nmol/kg, the “action on urethral pressure in the presence of tamsulosin hydrochloride” value ([2]; ET-1 1 μg/kg i.v.) was “increased the urethral pressure of the whole of lower urinary tract including prostate” and the “action on urethral pressure (UPP)” value [3, 5] was “remarkable increase of the pressure throughout urethra other than prostate in addition to an increase of the urethral pressure of prostate”. The “action on mean blood pressure” value ([3]; dog, in vivo, iv) was “without substantially affecting the mean blood pressure”.

`CNC[C@H](O)c1cccc(O)c1` [phenylephrine hydrochloride] was tested, and the “EC50 value of increase of PUP, reduced into molar concentration” value ([1]; anesthetized dog) was 7.47 ± 2.82 nmol/kg, the “degree of increase of PUP relative to ET-1” value ([1]; phenylephrine hydrochloride 2 μg/kg i.a. vs ET-1 0.4 μg/kg i.a., typical example) was “higher about twice” and the “action on mean blood pressure” value [3, 5] was “increase of mean blood pressure”. The “action on urethral pressure (UPP)” value [3, 5] was “remarkable increase of the urethral pressure of prostate”.

In the case of sarafotoxin S6c [Compound S6c], the “contraction of isolated preparations (in words)” value [4] was “not substantially observed”.

`CCOc1ccccc1OCCN[C@H](C)Cc1ccc(OC)c(S(N)(=O)=O)c1` [tamsulosin hydrochloride] was tested, and the “action on prostatic urethral pressure” value ([2]; anesthetized dogs) was “reduced the prostatic urethral pressure”.
